Data on 11 compounds can be found in ChEMBL document CHEMBL1201862, “PubChem BioAssay data set” (2004).

Among the test systems are A549; COLO 205; EKVX; HL-60; KM12; M14; M19-MEL; NCI-H23; SF-268; SF-295; SF-539; SK-MEL-28; SN12C; SNB-19; U-251; UACC-62; SNB-75; NCI-H226; MCF7; MDA-MB-435.
Holding throughout (test): growth of human tumour cells (NCI), 48 h

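Following 48 hours of exposure in 96-well plates, responses at five concentrations were used to interpolate endpoints linearly. Here, GI50 denotes the concentration required for 50% inhibition of growth.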 The source made the active and inactive calls. No stated cut-off is given here; in the data, active = GI50 up to about 1.1 µM and inactive = higher.

`CC1=NN(C(=O)c2ccc(Cl)cc2)C(=O)/C1=C/c1ccco1`: the GI50 in the assay on A549, in the assay with COLO 205, in the assay with EKVX, in the assay with HL-60, in the assay on KM12 and in the assay on M14 was > 100 µM (inactive) throughout. Moreover, the GI50 in the assay with M19-MEL, in the assay on NCI-H23, in the assay on SF-268, in the assay on SF-295, in the assay on SF-539 and in the assay with SK-MEL-28 was > 100 µM (inactive) throughout. The GI50 in the assay with SN12C, with SNB-19, with U-251 and in the assay on UACC-62 was > 100 µM (inactive) each time.

As to `Cc1ccc(NC(=O)C2C(=O)C(=O)N(c3ccc(C)cc3)C2=O)cc1` (stereo not given), the GI50 with A549, in the assay on COLO 205, with EKVX, in the assay on HL-60, in the assay with KM12 and with M14 was > 100 µM (inactive) each time. The GI50 in the assay on M19-MEL was > 100 µM (inactive); with NCI-H23 it was > 100 µM (inactive); with SF-268 it was > 100 µM (inactive); with SF-295 it was > 100 µM (inactive); in the assay on SF-539, > 100 µM (inactive); in the assay on SK-MEL-28, > 10 µM (inactive). For the same compound, the GI50 with SN12C is > 100 µM (inactive); in the assay with SNB-19 it was > 100 µM (inactive); in the assay on U-251 it was 99.3 µM (inactive); with UACC-62, > 100 µM (inactive).

As for `CCN(CC)c1ccc(C(=O)c2ccccc2C(=O)O)c(O)c1`, the GI50 in the assay with A549, with COLO 205, with EKVX, in the assay with HL-60, with KM12 and in the assay on M14 was > 100 µM (inactive) each time. Also, the GI50 with M19-MEL, with NCI-H23, with SF-268, in the assay on SF-295, in the assay with SF-539 and with SK-MEL-28 was > 100 µM (inactive) throughout. Besides, the GI50 in the assay on SN12C, with SNB-19, with SNB-75, in the assay with U-251 and with UACC-62 was > 100 µM (inactive) in each case.

On to `Cc1cc2c(c3c1c1ccccc1n3C)C(=O)c1ccccc1C2=O`, for which the GI50 is > 100 µM (inactive) in the assay on A549; > 100 µM (inactive) in the assay on COLO 205; > 100 µM (inactive) in the assay with EKVX; 39.3 µM (inactive) with HL-60; > 100 µM (inactive) in the assay on KM12; > 100 µM (inactive) in the assay on M14. The GI50 in the assay with M19-MEL was > 100 µM (inactive); with NCI-H23, 48.5 µM (inactive); in the assay with SF-268, > 100 µM (inactive); with SF-295, > 100 µM (inactive); in the assay on SF-539, > 100 µM (inactive); in the assay on SK-MEL-28, > 100 µM (inactive). The GI50 in the assay with SN12C, in the assay on SNB-19, with SNB-75, in the assay on U-251 and in the assay with UACC-62 was > 100 µM (inactive) each time.

On to `CCCNCCCC(NC(C)=O)C(=O)NCc1ccccc1` (stereo not given), for which the GI50 with A549, in the assay on COLO 205, in the assay with EKVX, in the assay with KM12, with M14 and with M19-MEL was > 100 µM (inactive) each time. For the same compound, the GI50 with NCI-H226, in the assay with NCI-H23, with SF-268, in the assay on SF-295, in the assay on SF-539 and in the assay with SK-MEL-28 was > 100 µM (inactive) throughout. The GI50 in the assay on SN12C was > 100 µM (inactive); in the assay with SNB-19 it was > 100 µM (inactive); with SNB-75, 51.8 µM (inactive); in the assay on U-251, > 100 µM (inactive); in the assay on UACC-62, > 100 µM (inactive).

As to `Cc1cc(NS(=O)(=O)c2ccc(NC(=O)c3cccc4c(Nc5ccc(S(=O)(=O)Nc6cc(C)on6)cc5)c5ccccc5nc34)cc2)no1`, the GI50 is > 100 µM (inactive) in the assay with A549; 62.4 µM (inactive) in the assay on COLO 205; > 100 µM (inactive) in the assay with EKVX; 23.7 µM (inactive) in the assay with HL-60; > 100 µM (inactive) with KM12; 72.6 µM (inactive) in the assay on M14. The GI50 in the assay with M19-MEL is 35.8 µM (inactive); in the assay with NCI-H23 it was 44.5 µM (inactive); with SF-268 it was 34.7 µM (inactive); with SF-295 it was > 100 µM (inactive); in the assay on SF-539 it was 27.4 µM (inactive); in the assay on SK-MEL-28 it was 40.3 µM (inactive). Besides, the GI50 with SN12C is 39.4 µM (inactive); in the assay on SNB-19 it was 32.7 µM (inactive); with SNB-75, 22.3 µM (inactive); with U-251, 30.5 µM (inactive); in the assay with UACC-62, 17.5 µM (inactive).

For `O=[N+]([O-])/C(Cl)=C(/C(Cl)=C(Cl)Cl)N1CCOCC1`, the GI50 in the assay on A549 was 5.73 µM (inactive); in the assay with COLO 205, 2.54 µM (inactive); in the assay on EKVX, 6.53 µM (inactive); in the assay on HL-60, 2.28 µM (inactive); with KM12, 3.34 µM (inactive); in the assay on M14 it was 2.36 µM (inactive). For the same compound, the GI50 is 1.12 µM (active) in the assay on MCF7; 2.28 µM (inactive) in the assay on MDA-MB-435; 16.4 µM (inactive) in the assay on NCI-H226; 2.24 µM (inactive) in the assay on NCI-H23; 6.41 µM (inactive) in the assay with SF-268; 11.5 µM (inactive) in the assay with SF-295. The GI50 is 3.12 µM (inactive) with SF-539; 11 µM (inactive) in the assay on SK-MEL-28; 7.43 µM (inactive) in the assay with SN12C; 17.6 µM (inactive) in the assay with SNB-19; 4.03 µM (inactive) with SNB-75; 10.7 µM (inactive) in the assay on U-251. In addition, the GI50 in the assay on UACC-62 is 1.92 µM (inactive).

As for `CN1C(=O)NC(=O)/C(=C\Nc2ncccn2)C1=O`, the GI50 in the assay with A549, in the assay on COLO 205, with EKVX, in the assay with HL-60, in the assay on KM12 and in the assay on M14 was > 100 µM (inactive) in each case. In addition, the GI50 with MCF7, in the assay with MDA-MB-435, in the assay with NCI-H226, with NCI-H23, in the assay with SF-268 and in the assay on SF-295 was > 100 µM (inactive) throughout. The GI50 in the assay with SF-539, in the assay on SK-MEL-28, with SN12C, in the assay with SNB-19, with SNB-75 and in the assay with U-251 was > 100 µM (inactive) each time. Besides, the GI50 with UACC-62 is > 100 µM (inactive).

On to `CCN(CC)CCN1C(=O)C(=O)N(c2cccc3ccccc23)C1=O`, for which the GI50 with A549, with COLO 205, with EKVX, in the assay on HL-60, in the assay with KM12 and in the assay with M14 was > 10 µM (inactive) throughout. Also, the GI50 in the assay on MCF7, in the assay on MDA-MB-435, in the assay on NCI-H226, in the assay with NCI-H23, in the assay on SF-268 and with SF-295 was > 10 µM (inactive) each time. Moreover, the GI50 in the assay with SF-539, in the assay on SK-MEL-28, in the assay with SN12C, in the assay on SNB-19, in the assay on SNB-75 and in the assay with U-251 was > 10 µM (inactive) throughout. In addition, in the assay on UACC-62, the GI50 was > 10 µM (inactive).

On to `CC(C)CCOC(=O)NC(Nc1ccc(F)cc1)(C(F)(F)F)C(F)(F)F`, for which the GI50 is 23.1 µM (inactive) with A549; 18.3 µM (inactive) in the assay with COLO 205; 60.7 µM (inactive) in the assay with EKVX; 12.9 µM (inactive) with HL-60; 5.98 µM (inactive) in the assay with KM12; 6.62 µM (inactive) with M14. Moreover, the GI50 in the assay on MCF7 was 23.2 µM (inactive); in the assay on MDA-MB-435 it was 13.7 µM (inactive); in the assay with NCI-H226, > 100 µM (inactive); in the assay on NCI-H23, 33.4 µM (inactive); in the assay with SF-268, 34.1 µM (inactive); with SF-295 it was > 100 µM (inactive). Moreover, the GI50 with SF-539 is 16.1 µM (inactive); in the assay with SK-MEL-28, > 100 µM (inactive); with SN12C it was 36.1 µM (inactive); with SNB-19, 62.2 µM (inactive); in the assay on SNB-75, > 100 µM (inactive); in the assay on U-251, 27.3 µM (inactive). Besides, in the assay with UACC-62, the GI50 is 0.279 µM (active).

Consider `COc1ccc(OC)c2c1C1CCC(=O)N1CN2C(C)=O` (stereo not given), for which the GI50 with A549, in the assay with COLO 205, in the assay with EKVX, in the assay with HL-60, in the assay with KM12 and in the assay with M14 was > 100 µM (inactive) each time. For the same compound, the GI50 is > 100 µM (inactive) in the assay on MCF7; > 100 µM (inactive) in the assay with MDA-MB-435; > 100 µM (inactive) with NCI-H226; > 100 µM (inactive) in the assay with NCI-H23; 75.5 µM (inactive) in the assay with SF-268; > 100 µM (inactive) in the assay with SF-295. Also, the GI50 in the assay with SF-539, in the assay with SK-MEL-28, in the assay with SN12C, in the assay with SNB-19, with SNB-75 and with U-251 was > 100 µM (inactive) in each case. The GI50 in the assay on UACC-62 was > 100 µM (inactive).
